# Test results reported in patent publication US11402382B2, “Diagnostic and therapeutic methods for cancer” (Genentech, Inc., priority 2017, dated 2022).
# Where two headings read alike, the source gives them in different places.
# Legend:
# [1] = IMmotion150 phase 2 randomized trial: safety (adverse events); conditions: for Arthralgia / Constipation / Cough / Decreased appetite / Diarrhea / Dysgeusia / Epistaxis / Fatigue / Headache / Hypertension / Infections and infestations / Mucosal inflammation / Nausea / Palmar-plantar erythrodysesthesia syndrome / Proteinuria / Pruritus / Pyrexia / Rash / Stomatitis / Vomiting: AEs occurring in ≥20% of patients in any arm; for Treatment-related AE: all grade; for AEs leading to death: events: footnote a of Table 23;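 as to all read-outs here: Open-label multicenter randomized phase 2 trial with three treatment arms, safety set restricted to patients who actually received study drug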
# Procedure: (§1) Study treatment consisted of atezolizumab 1200 mg fixed intravenous dose +bevacizumab 15 mg/kg every three weeks, atezolizumab 1200 mg fixed intravenous dose every three weeks, or sunitinib 50 mg/day orally for four weeks followed by two weeks of rest. On disease progression (as assessed by the investigator per RECIST v1.1), patients randomized to atezolizumab monotherapy or sunitinib had the option to cross over and receive the atezolizumab+bevacizumab combination in some regions (option was not available in Europe). In the absence of unacceptable toxicity, treatment with the combination continued until evidence of progressive disease. Where permitted, patients in the atezolizumab-containing arms could continue to be treated beyond disease progression per RECIST v1.1 until lack of clinical benefit; those in non-European nations could cross over to atezolizumab+bevacizumab therapy at any time after disease progression per RECIST v1.1, provided all eligibility criteria were met.
# [2] = system: previously untreated metastatic renal cell carcinoma (mRCC); assay: IMmotion150 phase 2 randomized trial: efficacy (PFS, ORR per RECIST v1.1, IRF); format: in vivo, human; conditions: IRF-assessed
# Procedure: A phase II clinical study, IMmotion150 (NCT01984242), was performed to evaluate the safety and tolerability of atezolizumab, alone or in combination with bevacizumab, as compared to sunitinib in patients with previously untreated metastatic renal cell carcinoma (mRCC). Integrated tumor genomic analyses were also performed to correlate molecular biomarkers with observed clinical outcomes in the phase II study.
# The primary objective of this phase 2 trial was to evaluate the efficacy of atezolizumab+bevacizumab and atezolizumab monotherapy compared with sunitinib.
# The original primary endpoint was PFS per Response Evaluation Criteria In Solid Tumors version 1.1 (RECIST v1.1) via IRF in the ITT population. Although patients were stratified by ≥5% PD-L1 expression on IC, the definition of PD-L1 positivity was revised from ≥5% to ≥1% PD-L1 expression on IC, based on phase 1a data, and the study protocol was amended to create PD-L1 expression on IC as a coprimary endpoint of IRF-assessed PFS. […] Secondary endpoints included investigator (INV)-assessed PFS, ORR, and duration of response (DOR) per RECIST v1.1, overall survival (OS), patient-reported outcomes, and safety. Key exploratory objectives included evaluation of the relationship between the expression of predictive and prognostic exploratory biomarkers and their association with disease status and efficacy as defined by ORR and PFS.
# During the study, each cycle was six weeks (42 days) in duration, and data on tumor measurement and survival status were collected for evaluation of PFS, milestone PFS (at 24, 52, and 76 weeks), OS, and ORR per RECIST v1.1. Tumor assessments occurred at baseline and every 12 weeks ±five business days after Cycle 1, Day 1, or more frequently if clinically indicated. Patients who discontinued first-line treatment or crossover treatment were followed up for survival approximately every three months until death, withdrawal of consent, loss to follow-up, or study termination. Patients who discontinued study treatment for reasons other than disease progression (e.g., toxicity) continued to undergo scheduled tumor assessments (every 12 weeks) until death, disease progression per RECIST v1.1, withdrawal of consent, or study termination, whichever occurred first.
# Kaplan-Meier methodology was used to estimate the median PFS for each treatment arm, and Kaplan-Meier curves were produced. The primary analysis was triggered when 140 INV-PFS events occurred among patients treated with atezolizumab+bevacizumab and with sunitinib or among patients treated with atezolizumab alone and with sunitinib, whichever occurred later. The HR estimates and their 95% CIs were determined by using the stratified Cox proportional hazards model. The stratification factors included prior nephrectomy, tumor PD-L1 status, and MSKCC score and were determined based on data from the electronic case report form; if such data were missing, data collected by the IxRS at the time of randomization were used. Tumor specimens were prospectively tested for PD-L1 expression on ICs by a central laboratory using the SP142 IHC assay (VENTANA, Tucson, Ariz.). IC staining was defined as follows: any discernible PD-L1 staining of any intensity in IC covering <1% or absent (ICO), between ≥1% and <5% (IC1), between ≥5% and <10% (IC2), or ≥10% (IC3) of tumor area occupied by tumor cells, associated intratumoral, and contiguous peri-tumoral desmoplastic stroma.
# [3] = in vivo
# Procedure: as §1
# [4] = AE of special interest, All Grade
# [5] = AE of special interest, Grade 3/4
# [6] = PD-L1+ population (≥1% PD-L1 expression on IC)
compound,measurement,setting,value
"CCN(CC)CCNC(=O)c1c(C)[nH]c(/C=C2\C(=O)Nc3ccc(F)cc32)c1C [Sunitinib, N-[2-(Diethylamino)ethyl]-5-[(Z)-(5-fluoro-2-oxo-1,2-dihydro-3H-indol-3-ylidene)methyl]-2,4-dimethyl-1H-pyrrole-3-carboxamide]",AEs leading to death,[1]; % of patients,(2%)
same,AEs leading to dose modification or interruption,[1]; % of patients,(70%)
same,AEs leading to withdrawal from treatment,[1]; % of patients,(10%)
same,"Grade 3/4 AEs, any cause",[1]; % of patients,(69%)
same,Treatment-related AEs leading to death,[1]; % of patients,(2%)
same,Treatment-related AEs leading to withdrawal from treatment,[1]; % of patients,(9%)
same,Treatment-related grade 3/4 AEs,[1]; % of patients,(57%)
same,Treatment-related AEs leading to withdrawal from treatment,"[1]; % of patients, listed as sunitinib",9%
same,Decreased blood cortisol/adrenal insufficiency,[1]; [4],0 n
same,Pneumonitis,[1]; [4],0 n
same,Colitis,[1]; [5],0 n
same,Decreased blood cortisol/adrenal insufficiency,[1]; [5],0 n
same,Pneumonitis,[1]; [5],0 n
same,TSH decreased/hypothyroidism,[1]; [5],0 n
same,TSH increased/hyperthyroidism,[1]; [5],0 n
same,Arthralgia,[1],(18.0%)
same,Constipation,[1],(30.0%)
same,Cough,[1],(25.0%)
same,Decreased appetite,[1],(29.0%)
same,Diarrhea,[1],(59.0%)
same,Dysgeusia,[1],(30.0%)
same,Epistaxis,[1],(12.0%)
same,Fatigue,[1],(70.0%)
same,Headache,[1],(23.0%)
same,Hypertension,[1],(35.0%)
same,Infections and infestations,[1],(32.0%)
same,Mucosal inflammation,[1],(33.0%)
same,Nausea,[1],(45.0%)
same,Palmar-plantar erythrodysesthesia syndrome,[1],(40.0%)
same,Proteinuria,[1],(9.0%)
same,Pruritus,[1],(10.0%)
same,Pyrexia,[1],(12.0%)
same,Rash,[1],(13.0%)
same,Stomatitis,[1],(25.0%)
same,Vomiting,[1],(20.0%)
same,Arthralgia,[1]; number of patients,18
same,Constipation,[1]; number of patients,30
same,Cough,[1]; number of patients,25
same,Decreased appetite,[1]; number of patients,29
same,Diarrhea,[1]; number of patients,59
same,Dysgeusia,[1]; number of patients,30
same,Epistaxis,[1]; number of patients,12
same,Fatigue,[1]; number of patients,70
same,Headache,[1]; number of patients,23
same,Hypertension,[1]; number of patients,35
same,Infections and infestations,[1]; number of patients,32
same,Mucosal inflammation,[1]; number of patients,33
same,Nausea,[1]; number of patients,45
same,Palmar-plantar erythrodysesthesia syndrome,[1]; number of patients,40
same,Proteinuria,[1]; number of patients,9
same,Pruritus,[1]; number of patients,10
same,Pyrexia,[1]; number of patients,12
same,Rash,[1]; number of patients,13
same,Stomatitis,[1]; number of patients,25
same,Vomiting,[1]; number of patients,20
same,Treatment-related AE,[1]; % of patients,(96%)
same,Treatment-related AE,[1]; number of patients,96 n
same,AEs leading to death: events,[1],"sudden death (related), intestinal hemorrhage (related)"
same,related AE leading to treatment discontinuation: increased blood creatinine,[1]; in vivo,2%
same,related AE leading to treatment discontinuation: palmar-plantar erythrodysesthesia syndrome,[1]; in vivo,2%
same,AEs leading to death,[1]; number of patients,2 n
same,AEs leading to dose modification or interruption,[1]; number of patients,70 n
same,AEs leading to withdrawal from treatment,[1]; number of patients,10 n
same,"All-grade AEs, any cause",[1]; number of patients,99 n
same,"Grade 3/4 AEs, any cause",[1]; number of patients,69 n
same,Treatment-related AEs leading to death,[1]; number of patients,2 n
same,Treatment-related AEs leading to withdrawal from treatment,[1]; number of patients,9 n
same,Treatment-related grade 3/4 AEs,[1]; number of patients,57 n
same,complete response (CR),[2]; ITT population,5%
same,median progression-free survival (PFS),[2]; ITT population,8.4 months
same,objective response rate (ORR),[2]; ITT population,29%
same,partial response (PR),[2]; ITT population,24%
same,complete response (CR),[2]; PD-L1+ patients,7%
same,objective response rate (ORR),[2]; PD-L1+ patients,27%
same,partial response (PR),[2]; PD-L1+ patients,20%
same,median progression-free survival (PFS),[2]; [6],7.8 months
"Atezo: anti-PD-L1 antibody atezolizumab (CAS Registry Number: 1422185-06-5), Genentech, also known as MPDL3280A",AEs leading to death,[1]; % of patients,(2%)
same,AEs leading to death: events,[1],"hematophagic hitiocytosis, lower respiratory tract infection"
same,AEs leading to death,[1]; number of patients,2 n
same,Treatment-related AEs leading to death,[1]; number of patients,0 n
same,Stratified PFS HR (95% CI) vs sunitinib,[2]; ITT population,1.19
same,complete response (CR),[2]; ITT population,11%
same,median progression-free survival (PFS),[2]; ITT population,6.1 months
same,objective response rate (ORR),[2]; ITT population,25%
same,partial response (PR),[2]; ITT population,14%
same,Stratified PFS HR (95% CI) vs sunitinib,"[2]; PD-L1+ (PD-L1 IHC IC1/2/3, ≥1%)",1.03
same,complete response (CR),[2]; PD-L1+ patients,15%
same,objective response rate (ORR),[2]; PD-L1+ patients,28%
same,partial response (PR),[2]; PD-L1+ patients,13%
same,median progression-free survival (PFS),[2]; [6],5.5 months
same,Stratified PFS HR (95% CI) vs sunitinib,[2]; PD-L1 IHC IC2/3 (≥5%),0.64
same,Colitis,[3],0 n
same,Decreased blood cortisol/adrenal insufficiency,[3],0 n
same,Pneumonitis,[3],0 n
same,TSH decreased/hypothyroidism,[3],0 n
same,TSH increased/hyperthyroidism,[3],0 n
same,treatment-related AE leading to discontinuation of treatment: demyelination,[3],1%
same,treatment-related AE leading to discontinuation of treatment: nephritis,[3],1%
same,treatment-related AE leading to discontinuation of treatment: pancreatitis,[3],1%
